# Numbers after ± are expanded uncertainties.
# How the values were obtained:
# [1] = Molar enthalpy of transition or fusion; settings: Crystal; DSC
# [2] = Crystal; DTA
Molar enthalpy of transition or fusion [1] [kJ/mol],Normal melting temperature [2] [°C],SMILES
28 ± 0.63,202.2 ± 0.6,"CC(C)(C)C1=CC=C(C(C)(C)C)C(=O)C1=O [3,6-di-tert-butyl-o-benzoquinone]"
26.2 ± 0.59,115.4 ± 0.6,"CC(C)(C)C1=CC(=O)C(=O)C(C(C)(C)C)=C1 [3,5-di-tert-butyl-o-benzoquinone]"

# — the NIST ThermoML archive (doi:10.1016/j.jct.2015.09.003)
